The values that follow come from paper PMC4890114, “Intracellular quantitative detection of human thymidylate synthase engagement with an unconventional inhibitor using tetracysteine-diarsenical-probe technology” (Scientific Reports, 2016).

The conditions of assay [1]: complexes of FlAsH with some dodecapeptides including CCPGCC; 'as low as'; read-out: apparent dissociation constant; cited from earlier work. The source says:
According to a strategy devised by Tsien and co-workers, some fluorogenic biarsenicals can covalently bind proteins that contain a tetracysteine motif, CCXXCC, thereby strongly enhancing their emission quantum yield and making such tetracysteine-containing proteins observable within cells. The CCPGCC sequence features a hairpin conformation that optimizes the covalent binding of each As atom of the probe to the S atoms of two cysteine units. Apparent dissociation constants as low as 4 pM have been measured for complexes formed between the fluorescein diarsenical probe FlAsH and some do ...

The test system of assay [2] is TC-hTS-transfected HEK293T cells. As to the kind of experiment: FlAsH-EDT2 staining and confocal imaging of transfected HEK293T cells. The class given is cell-based, human. The conditions noted are these: HEK293T transfected with empty vector, hTS or TC-hTS; 0.5 μM FlAsH, 30 min; confocal microscopy. How it is done: HEK293T cells (3 × 10^4) were plated into 6-well microslides pre-coated with 0.01% (w/v) poly-L lysine and transfected the following day with 2.5 μg of DNA using Lipofectamine™ LTX Transfection Reagent. After 24 h, cells were labelled for 30 min with 12.5 μM 1,2-ethanedithiol (EDT) and 0.5 μM FlAsH (Life Technologies) in HBSS and then washed twice for 15 min in 150 μM 2,3-dimercaptopropanol (BAL) in HBSS. Cells were fixed with 4% (w/v) paraformaldehyde for 15 min at RT and then imaged using an inverted Leica TCS SP2 confocal microscope interfaced with an Ar Laser (488 nm/20 mW), equipped with AOBS and operated at a magnification of 63x (HCX PL APO 63x/1.40 - oil - Lambda blue correction). Images were processed using LCS Lite (Leica Microsystems, Heidelberg).

For assay [3], the system named is TC-hTS in HEK293T cell lysates. The experiment in a line: FlAsH emission in cell lysates. Conditions: excitation 480 nm. The class given is binding, human. How it is done: HEK293T cells (10 × 10^6) were plated into 150-mm dishes (6 dishes were used for each condition) and transfected the following day with 25 μg of pcDNA-TS or pcDNA-TS-TC using Lipofectamine™ LTX Transfection Reagent; cells were collected 48 h post-transfection in 15-ml tubes and washed twice with 4 °C cold PBS for spectrofluorometric analysis. […]
UV-visible absorption measurements were performed with a Cary 100 Varian spectrophotometer. Fluorescence measurements were carried out with a Horiba Fluoromax-3 spectrofluorometer. […] The fluorescein, hTS dimer and LR-h concentrations were determined spectrophotometrically using the following extinction coefficients: εmax (fluorescein) = 79000 M^−1 cm^−1, ε280 (hTS) = 89000 M^−1 cm^−1, ε280 (fluorescein) = 30000 M^−1 cm^−1,[28] and ε404 (LR-h) = 35000 M^−1 cm^−1, determined ad hoc for this work. The h (420 nm) and F (522 nm) emissions were measured by excitation at 370 or 380 nm. The F emission values were analysed according to the Scatchard method as functions of the LR-h concentration. The amount measured before LR-h addition and due to the direct excitation of F at 370 nm was subtracted from the intensity measured at 522 nm. […] Similar experiments were performed in 800 μl of the lysate of 60 × 10^6 HEK cells to which hTS-F was added to a concentration of 2.5 μM (determined spectrophotometrically). […]

In assay [4] the target is T1, human thymidylate synthase (hTS) (Homo sapiens, UniProt P04818).
T1 construct: inferred from the nickel-resin purification and the pQE80L vector; made in house; host or cells: E. coli DH5α
The experiment in a line: Kinetic characterization of the hTS enzyme. Conditions: mTHF 3.50-69.20 μM; enzyme 0.30 μM, dUMP 120 μM; 340 nm; triplicate. The class given is biochemical.
Method: The enzyme reaction was started when dUMP was added to the reaction mixture. […] For each single determination assay, the experimental data were analysed in triplicate with a p-value < 0.005 representing statistical significance.

`O=C(O)c1ccccc1-c1c2ccc(=O)c([As]3SCCS3)c-2oc2c([As]3SCCS3)c(O)ccc12` [FlAsH]: the Kd in assay [1] is at least 4 pM. For the same molecule, the green fluorescence enhancement result in assay [2] is “green fluorescence enhancement only in TC-hTS-transfected cells”. The “FlAsH emission, TC-hTS cell lysate versus hTS cell lysate” value in assay [3] (after fourth addition, total FlAsH 0.6 μM) is on record as 2.5 times. In assay [3] (printed for the hTS-expressing cells), the “duration of FlAsH emission increase after addition of the probe” value is reported as “approximately forty”.

By Km is commonly meant the concentration of substrate that gives half-maximal velocity. Consider `Nc1nc2c(c(=O)[nH]1)N1CN(c3ccc(C(=O)N[C@@H](CCC(=O)O)C(=O)O)cc3)CC1CN2` (some centres unmarked) [mTHF, 5,10-methylenetetrahydrofolate], for which the Km in assay [4] was determined as 5.87 µM.
